Source: US20080039442A1, “Compounds With Kv4 Ion Channel Activity” (Devgen NV, priority 2004, published 2008)

Experiments:
[1] = target: T1, Kv1.5 potassium channel (Homo sapiens, UniProt P22460); assay: Patch clamp, CHO cells stably expressing Kv1.5; assay type: cell-based
T1 construct: expressed in transfected cells
Experimental: The cDNA coding for Kv1.5 (GenBank Acc. No. M55513) was cloned into the pcDNA6-vector (Invitrogen, Leek, Netherlands). A C-terminal epitope-tag was introduced via PCR. The plasmid was sequenced and subsequently introduced into cells. Clonal cell lines stably expressing the Kv1.5 channel were established. Expression of protein was analysed by means of immunofluorescence using antibodies directed against the epitope-tag. The functional expression of the ion channels was validated electrophysiologically.
The experiments were performed using CHO cells stably expressing the Kv 1.5 potassium channel.
Cells were grown at 37° C. and 5% CO2 in 25 ml flasks (Greiner Bioone, Cellstar, Cat. No. 690160) in 6 ml MEM ALPHA Medium (Sigma, Taufkirchen, Germany, Cat No M8042) supplemented with 10% (v/v) heat inactivated fetal calf serum (Sigma, Cat. No. F9665), 1% (v/v) P/S/G-solution (Sigma, Cat. No. G6784) and G-418 (750 μg per millilitre medium; Sigma, Germany, Cat. No. A1720; 50 mg/ml in water, Sigma, Germany, Cat. No. W3500).
From a HP of −60 mV cells were hyperpolarised for 100 ms to −70 mV, followed by a 500 ms depolarisation to +50 mV. The current amplitude at the end of the test pulse to +50 mV was used for the analysis. Pulse cycling rate was 10 s (0.1 Hz).
The application protocol of test compounds is depicted in FIG. 4. The first 14 stimuli were required to achieve steady state of the current amplitude. Unspecific current reduction was calculated and served for correcting procedures during data analysis. After the 14th stimulus the test compound application was started (indicated by an arrow) via teflon and silicone tubings and was assumed to reach the cell after 6 additional stimuli. The perfusion is adjusted by using a defined drop rate of 10 drops per 10-12 s. Up to three concentrations were applied successively to one cell followed by a wash period of 5 minutes. Total number of stimuli was 140. Effect of the test compound was analysed between stimulus nos. 21 and 50 (5 min., long dashed line) for the first concentration, between stimulus nos. 51 and 80 (5 min., short dashed line) for an additional 5 minutes. If the cell was still stable, a wash was added afterwards. Start of test compound application at the given concentration is indicated by arrows. Number of stimuli of each single episode are shown in the protocol of FIG. 4.
Vehicle (DMSO) control experiments were performed during study period and under identical conditions to verify the stability of current over time and to value cell condition.
The effects of the test compounds were investigated at one concentration (2 or 1 μM) on the Kv1.5-mediated potassium channel.

[2] = target: hERG potassium channel (Homo sapiens, UniProt Q12809); assay: Whole cell patch clamp, HEK 293 T-REx HERG cells; conditions: 10 μM
Excerpt: For this experiment HEK 293 T-REx HERG cells (#23) were used. This cell line made by IonGate is characterized by the inducible expression of the hERG gene. The T-REx™ System (Invitrogen, Karlsruhe, Germany) is a tetracycline-regulated mammalian expression system that uses regulatory elements from the E. coli Tn10-encoded tetracycline (Tet) resistance operon. In the absence of Tet the expression is repressed. Tetracycline regulation in the T-REx™ System is based on the binding of tetracycline to the Tet repressor and derepression of the promoter controlling expression of the hERG gene. Addition of Tet to the cell culture media results in expression of the hERG potassium channel.
To construct the HEK 293 T-REx HERG cell line, the hERG gene was ligated into the inducible expression vector pcDNA4/TO (→pc4TO-HERG) and transfected into HEK 293 T-REx cells (this cell line stably expresses the Tet repressor and was purchased at Invitrogen). Stable cell clones were isolated after selection with Blasticidin (5 μg/ml) and Zeocin™ (300 μg/ml). The clones were electrophysiological characterized after induction with 1 μg/ml Tet.
Experiments were performed using the patch clamp set-up. Technical equipment needed for manipulation of the cells was placed on a vibration-isolated table and shielded with a Faraday cage to minimize electrical noise. The amplifier and control system were placed in a rack outside the Faraday cage. The system consisted of an EPC9 or EPC10 patch clamp amplifier (HEKA, Lambrecht, Germany), and the perfusion system DADVC8 (ALA Scientific, New York, USA) controlled by the Pulse software package (HEKA, Lambrecht, Germany) installed on a personal computer.
The cells used for this experiment were kept in continuous culture under standard conditions (37° C., air supplemented with 5% CO2). The HEK 293 T-REx HERG cells were kept in minimal essential medium (MEM) supplemented with 100 U/ml Penicillin, 100 μg/ml Streptomycin, 10% fetal calf serum (FCS), 1% non-essential amino acids (NEAA), 2.5 μg/ml amphotericin, 300 μg/ml Zeocin™ and 5 μg/ml Blasticidin. Cells were passed every 3-4 days after detachment using a Trypsin solution. The quality of the cultured cells was guaranteed by vitality and contamination tests.
At least 18 hours prior to electrophysiological experiments the cells were detached by application of iced PBS (phosphate buffered saline) or Trypsin and replated on cover slips. 1 μg/ml Tet was added to the cells to induce hERG expression.
Activity of the cardiac hERG channel was investigated using the patch clamp technique in its whole cell mode. This means that the current needed for clamping the whole cell expressing the K^+-channel protein to a specific potential was measured. The pipettes used for patch clamping were made of borosilicate glass. Measurements were performed at room temperature (20-25° C.). In each experiment (i.e. each cell) only one concentration of the compound was investigated—no cumulative dosages were performed. Each cell acted as its own control. The effect of the compounds on hERG mediated currents was investigated at one concentration (10 μM) with two replicates each (c=1, n=2).
Between voltage pulses the cell was clamped to a holding potential of −80 mV (inside).
(b) and (c) were used to characterize the properties of the hERG channel and to check the quality of the individual patch clamp experiment (voltage control). Each test protocol consisted of 6 segments.

[3] = concentration cell empty (text: 2 or 1 μM)

T1 sequence (P22460 whole entry): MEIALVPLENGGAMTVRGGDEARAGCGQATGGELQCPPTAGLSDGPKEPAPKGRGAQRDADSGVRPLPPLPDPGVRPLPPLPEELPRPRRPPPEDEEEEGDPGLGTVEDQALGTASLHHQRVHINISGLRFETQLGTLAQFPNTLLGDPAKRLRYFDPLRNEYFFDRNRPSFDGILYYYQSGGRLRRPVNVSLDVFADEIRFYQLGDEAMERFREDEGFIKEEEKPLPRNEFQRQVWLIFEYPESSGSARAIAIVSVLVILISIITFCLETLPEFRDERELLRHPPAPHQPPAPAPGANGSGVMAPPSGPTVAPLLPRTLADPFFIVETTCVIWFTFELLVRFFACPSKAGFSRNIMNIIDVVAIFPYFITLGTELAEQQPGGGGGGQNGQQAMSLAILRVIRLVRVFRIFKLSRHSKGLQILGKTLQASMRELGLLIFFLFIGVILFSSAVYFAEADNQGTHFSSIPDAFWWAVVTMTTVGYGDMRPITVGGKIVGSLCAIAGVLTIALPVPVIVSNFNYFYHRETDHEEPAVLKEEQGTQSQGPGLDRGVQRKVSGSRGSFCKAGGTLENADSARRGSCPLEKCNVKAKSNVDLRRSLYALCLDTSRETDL
Chain of hERG potassium channel (Q12809 whole entry): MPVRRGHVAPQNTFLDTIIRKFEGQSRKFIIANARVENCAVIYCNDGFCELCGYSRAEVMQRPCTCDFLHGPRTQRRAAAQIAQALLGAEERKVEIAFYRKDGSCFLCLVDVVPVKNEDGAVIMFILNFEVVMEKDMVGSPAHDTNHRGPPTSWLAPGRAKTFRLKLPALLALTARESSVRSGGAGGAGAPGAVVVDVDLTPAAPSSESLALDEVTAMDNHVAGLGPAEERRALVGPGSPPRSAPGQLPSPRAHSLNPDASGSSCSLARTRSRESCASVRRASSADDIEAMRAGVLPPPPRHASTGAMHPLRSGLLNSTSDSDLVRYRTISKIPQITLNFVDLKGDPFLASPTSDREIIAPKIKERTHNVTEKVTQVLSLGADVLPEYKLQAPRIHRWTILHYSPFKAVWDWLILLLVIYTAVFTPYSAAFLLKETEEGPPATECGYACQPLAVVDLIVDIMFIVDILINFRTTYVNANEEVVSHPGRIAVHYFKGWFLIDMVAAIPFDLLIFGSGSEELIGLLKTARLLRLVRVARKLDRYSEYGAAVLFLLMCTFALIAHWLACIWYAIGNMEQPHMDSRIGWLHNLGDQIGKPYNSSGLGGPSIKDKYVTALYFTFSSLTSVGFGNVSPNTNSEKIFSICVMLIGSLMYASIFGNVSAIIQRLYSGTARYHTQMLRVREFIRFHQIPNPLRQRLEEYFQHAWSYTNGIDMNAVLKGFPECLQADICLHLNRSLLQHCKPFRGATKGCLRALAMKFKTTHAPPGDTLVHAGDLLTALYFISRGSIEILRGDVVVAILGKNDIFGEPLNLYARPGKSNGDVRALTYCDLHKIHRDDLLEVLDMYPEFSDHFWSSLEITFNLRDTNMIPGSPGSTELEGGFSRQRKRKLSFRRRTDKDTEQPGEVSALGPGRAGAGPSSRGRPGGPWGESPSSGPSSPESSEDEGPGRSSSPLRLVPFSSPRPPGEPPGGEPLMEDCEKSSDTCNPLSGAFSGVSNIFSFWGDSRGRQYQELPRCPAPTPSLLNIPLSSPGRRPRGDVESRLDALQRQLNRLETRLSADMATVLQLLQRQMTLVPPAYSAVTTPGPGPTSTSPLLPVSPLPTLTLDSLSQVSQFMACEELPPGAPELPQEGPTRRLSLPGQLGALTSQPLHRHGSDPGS

## 5-chloro-benzofuran-2- carboxylic acid 2,4- dimethoxy- benzylamide [Compound 2]
[1]; 2 μM, fraction, % in brackets
  Relative remaining current (mean after 8-10 min): 0.66 (66%)
  Relative remaining current (mean after 5 min): 0.88 (88%)

## O=C(NCc1ccc(OC(F)(F)F)cc1)c1cc2cc(Cl)ccc2o1 [Compound 89, 5-chloro-benzofuran-2-carboxylic acid 4-trifluoromethoxy-benzylamide]
[1]; [3]
  Relative remaining current (mean after 8-10 min): 82%
other
  melting point: 101.3 to 106.3 °C
[2]
  hERG (%): 39%

## Cc1c(C(=O)NCc2ccc(F)c(C(F)(F)F)c2)sc2ccc(Cl)cc12 [Compound 107, 5-chloro-3-methyl-benzo[b]thiophene-2-carboxylic acid 4-fluoro-3-trifluoromethyl-benzylamide]
[1]; [3]
  Relative remaining current (mean after 8-10 min): 89%
other
  melting point: 134 to 136.5 °C
[2]
  hERG (%): 38%
